The test concerns the target bovine cardiac myofibrils (full-length cardiac myosin ATPase in the native sarcomere) (Bos taurus (Bovine), UniProt Q9BE39). The experiment in a line: Skinned bovine cardiac myofibril ATPase assay (PK/LDH-coupled). The class given is biochemical. As to conditions: Ca2+ activating to 75% of maximal rate; for CDMF75 IC15: concentration giving 15% inhibition; for pIC50: read-out: CDMF75 IC50. The procedure, abridged: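 Triton-skinned bovine left-ventricle myofibrils (1 mg/mL) in PM 12 buffer (12 mM PIPES, 2 mM MgCl2, pH 6.8) with 50 μM ATP, 0.6 mM EGTA and CaCl2 set for 50% or 75% activation. Steady-state ATPase inhibition followed by PK/LDH-coupled NADH oxidation at 340 nm.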

The source of these data is patent US12065436B2, “Cardiac sarcomere inhibitors” (Cytokinetics, Inc., priority 2018, dated 2024).

pIC50: −log10 of the molar value.

Chain of bovine cardiac myofibrils (full-length cardiac myosin ATPase in the native sarcomere) (Q9BE39 whole entry): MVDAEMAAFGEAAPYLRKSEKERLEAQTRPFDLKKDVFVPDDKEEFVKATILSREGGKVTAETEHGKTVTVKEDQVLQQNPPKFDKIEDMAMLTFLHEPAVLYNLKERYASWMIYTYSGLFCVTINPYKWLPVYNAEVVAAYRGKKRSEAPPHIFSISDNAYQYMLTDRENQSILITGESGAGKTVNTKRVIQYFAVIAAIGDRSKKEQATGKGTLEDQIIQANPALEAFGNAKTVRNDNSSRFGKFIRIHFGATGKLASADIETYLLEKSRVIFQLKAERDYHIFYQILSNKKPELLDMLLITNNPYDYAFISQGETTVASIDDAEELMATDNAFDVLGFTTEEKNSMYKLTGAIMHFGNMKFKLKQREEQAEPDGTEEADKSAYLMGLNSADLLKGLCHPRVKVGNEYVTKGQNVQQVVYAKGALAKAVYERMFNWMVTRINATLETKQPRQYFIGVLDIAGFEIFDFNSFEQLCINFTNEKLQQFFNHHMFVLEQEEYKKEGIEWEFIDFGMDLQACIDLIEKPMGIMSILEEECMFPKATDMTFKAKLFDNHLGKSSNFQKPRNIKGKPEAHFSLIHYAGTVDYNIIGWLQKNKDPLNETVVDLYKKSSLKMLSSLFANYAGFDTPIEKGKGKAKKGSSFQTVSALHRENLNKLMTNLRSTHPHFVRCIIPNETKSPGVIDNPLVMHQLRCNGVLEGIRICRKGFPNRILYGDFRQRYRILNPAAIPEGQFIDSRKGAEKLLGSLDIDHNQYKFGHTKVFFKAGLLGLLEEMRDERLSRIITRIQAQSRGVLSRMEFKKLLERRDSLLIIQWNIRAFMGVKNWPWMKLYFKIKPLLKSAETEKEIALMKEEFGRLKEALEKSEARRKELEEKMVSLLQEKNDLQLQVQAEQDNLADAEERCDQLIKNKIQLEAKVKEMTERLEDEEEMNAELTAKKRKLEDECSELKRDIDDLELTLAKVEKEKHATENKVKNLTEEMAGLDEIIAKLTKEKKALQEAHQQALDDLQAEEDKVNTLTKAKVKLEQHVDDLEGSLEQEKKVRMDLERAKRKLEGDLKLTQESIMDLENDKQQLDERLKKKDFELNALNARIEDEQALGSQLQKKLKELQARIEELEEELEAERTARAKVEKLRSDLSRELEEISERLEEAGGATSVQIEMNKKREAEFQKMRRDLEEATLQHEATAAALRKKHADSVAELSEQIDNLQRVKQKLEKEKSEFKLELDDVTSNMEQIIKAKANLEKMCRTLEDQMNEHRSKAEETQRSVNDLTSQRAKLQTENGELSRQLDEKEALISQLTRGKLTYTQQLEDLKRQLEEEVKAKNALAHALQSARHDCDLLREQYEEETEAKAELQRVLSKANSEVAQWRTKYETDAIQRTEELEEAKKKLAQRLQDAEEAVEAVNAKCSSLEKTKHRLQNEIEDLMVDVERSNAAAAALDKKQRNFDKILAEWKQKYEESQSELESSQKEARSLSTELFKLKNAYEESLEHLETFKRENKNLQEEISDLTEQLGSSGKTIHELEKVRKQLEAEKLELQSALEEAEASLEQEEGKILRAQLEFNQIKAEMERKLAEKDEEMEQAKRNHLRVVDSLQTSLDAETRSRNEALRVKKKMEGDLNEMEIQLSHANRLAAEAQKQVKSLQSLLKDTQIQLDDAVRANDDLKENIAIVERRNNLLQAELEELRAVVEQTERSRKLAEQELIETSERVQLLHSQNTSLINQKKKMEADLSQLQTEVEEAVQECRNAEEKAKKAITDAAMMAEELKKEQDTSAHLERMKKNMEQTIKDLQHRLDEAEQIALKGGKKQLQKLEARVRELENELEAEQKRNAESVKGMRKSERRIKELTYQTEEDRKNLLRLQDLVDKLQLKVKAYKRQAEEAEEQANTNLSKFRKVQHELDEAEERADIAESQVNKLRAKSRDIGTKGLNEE
Chain of bovine cardiac myofibrils (full-length cardiac myosin ATPase in the native sarcomere) (P85100 whole entry partner): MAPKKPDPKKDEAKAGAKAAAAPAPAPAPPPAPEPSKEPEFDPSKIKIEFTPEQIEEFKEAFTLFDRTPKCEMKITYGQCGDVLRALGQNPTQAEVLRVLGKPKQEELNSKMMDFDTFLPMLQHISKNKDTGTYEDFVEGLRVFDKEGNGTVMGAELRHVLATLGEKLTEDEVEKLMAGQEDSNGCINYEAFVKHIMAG
Chain of bovine cardiac myofibrils (full-length cardiac myosin ATPase in the native sarcomere) (Q3SZE5 whole entry partner): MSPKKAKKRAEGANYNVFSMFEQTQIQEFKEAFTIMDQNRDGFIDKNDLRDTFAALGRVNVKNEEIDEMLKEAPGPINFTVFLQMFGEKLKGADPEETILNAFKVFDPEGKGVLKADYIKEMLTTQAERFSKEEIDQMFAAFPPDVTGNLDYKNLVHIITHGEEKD

For the molecule `Cc1nc(-c2ccc3c(c2)CCC3NC(=O)c2oc(C)nc2C)no1` (stereo not shown) [Compound 53, 2,4-dimethyl-N-(5-(5-methyl-1,2,4-oxadiazol-3-yl)-2,3-dihydro-1H-inden-1-yl)oxazole-5-carboxamide], the “CDMF75 IC15” value turned out to be 2.5 µM and the pIC50 is 5.06.
Turning to `Cc1noc(-c2ccc3c(c2)CC[C@H]3NC(=O)c2cn(C)nc2C)n1` [Compound 201, (R)-1,3-dimethyl-N-(5-(3-methyl-1,2,4-oxadiazol-5-yl)-2,3-dihydro-1H-inden-1-yl)-1H-pyrazole-4-carboxamide], the “CDMF75 IC15” value was 1.4 µM and the pIC50 was 5.27.
On to `Cc1n[nH]cc1C(=O)N[C@@H]1CCc2cc(-c3noc(C4CCC4)n3)ccc21` [Compound 399, (R)-N-(5-(5-cyclobutyl-1,2,4-oxadiazol-3-yl)-2,3-dihydro-1H-inden-1-yl)-3-methyl-1H-pyrazole-4-carboxamide], for which the “CDMF75 IC15” value was 0.3 µM and the pIC50 is 6.00.
Taken in the same sequence, the figures for `Cc1nc(-c2cnc3c(c2)CCC3NC(=O)c2ccccc2)no1` (stereo not shown) [Compound 42, N-(3-(5-methyl-1,2,4-oxadiazol-3-yl)-6,7-dihydro-5H-cyclopental[b]pyridin-7-yl)benzamide] were 7.2 µM and 4.50.
`[2H]C([2H])([2H])c1nc(-c2ccc3c(c2)CC[C@H]3NC(=O)c2ccnn2C)no1` [Compound 242, (R)-1-methyl-N-(5-(5-(methyl-d3)-1,2,4-oxadiazol-3-yl)-2,3-dihydro-1H-inden-1-yl)-1H-pyrazole-5-carboxamide]: the “CDMF75 IC15” value is 0.5 µM and the pIC50 was 5.82.
In the case of `Cc1nc(-c2ccc3c(c2)OC[C@H]3NC(=O)c2ccnn2C)no1` [Compound 122, (S)-1-methyl-N-(6-(5-methyl-1,2,4-oxadiazol-3-yl)-2,3-dihydrobenzofuran-3-yl)-1H-pyrazole-5-carboxamide], the “CDMF75 IC15” value worked out at 0.5 µM and the pIC50 is 5.74.
For `CC(=O)N[C@@H]1CCc2cc(-c3noc(C4CCC4)n3)ccc21` [Compound 406, (R)-N-(5-(5-cyclobutyl-1,2,4-oxadiazol-3-yl)-2,3-dihydro-1H-inden-1-yl)acetamide], the “CDMF75 IC15” value was found to be 1.9 µM and the pIC50 was 5.11.
Taken in the same sequence, the figures for `COCc1nc(-c2ccc3c(c2)CC[C@H]3NC(=O)c2oc(C)nc2C)no1` [Compound 180, (R)-N-(5-(5-(methoxymethyl)-1,2,4-oxadiazol-3-yl)-2,3-dihydro-1H-inden-1-yl)-2,4-dimethyloxazole-5-carboxamide] were 1.7 µM and 5.24.
For `Cc1cncc(-c2ccc3c(c2)CC[C@H]3NC(=O)c2ccnn2C)n1` [Compound 382, (R)-1-methyl-N-(5-(6-methylpyrazin-2-yl)-2,3-dihydro-1H-inden-1-yl)-1H-pyrazole-5-carboxamide] the same measures were 2.7 µM and 5.00.
Consider `CC(C)c1nc(-c2ccc3c(c2)CC[C@H]3NC(=O)C(F)F)no1` [Compound 438, (R)-2,2-difluoro-N-(5-(5-isopropyl-1,2,4-oxadiazol-3-yl)-2,3-dihydro-1H-inden-1-yl)acetamide], for which the “CDMF75 IC15” value came out at 3.7 µM and the negative-log IC50 (pIC50) was 4.80.
In the case of `CC(=O)N1CC[C@H]1C(=O)N[C@@H]1CCc2cc(-c3noc(C4CC4)n3)ccc21` [Compound 332, (S)-1-acetyl-N-((R)-5-(5-cyclopropyl-1,2,4-oxadiazol-3-yl)-2,3-dihydro-1H-inden-1-yl)azetidine-2-carboxamide], the “CDMF75 IC15” value is 39.2 µM and the pIC50 is less than 4.41.
For `Cc1cc(C(=O)N[C@@H]2CCc3cc(-c4noc(C(F)F)n4)ccc32)ncn1` [Compound 683, (R)-N-(5-(5-(difluoromethyl)-1,2,4-oxadiazol-3-yl)-2,3-dihydro-1H-inden-1-yl)-6-methylpyrimidine-4-carboxamide] the same measures were 1.1 µM and 5.34.
On to `O=C(N[C@@H]1COc2cc(-c3noc(C(F)F)n3)ccc21)C(F)F` [Compound 441, (S)-N-(6-(5-(difluoromethyl)-1,2,4-oxadiazol-3-yl)-2,3-dihydrobenzofuran-3-yl)-2,2-difluoroacetamide], for which the “CDMF75 IC15” value worked out at 3.4 µM and the pIC50 was 4.86.
On to `O=C(N[C@@H]1CCc2cc(-c3noc(C(F)F)n3)ccc21)N1CCOCC1` [Compound 301, (R)-N-(5-(5-(difluoromethyl)-1,2,4-oxadiazol-3-yl)-2,3-dihydro-1H-inden-1-yl)morpholine-4-carboxamide], for which the “CDMF75 IC15” value was 9.5 µM and the pIC50 was less than 4.41.
On to `Cc1nc(C(=O)NC2CCc3cc(-c4noc(C)n4)ccc32)no1` (stereo not shown) [Compound 87, 5-methyl-N-(5-(5-methyl-1,2,4-oxadiazol-3-yl)-2,3-dihydro-1H-inden-1-yl)-1,2,4-oxadiazole-3-carboxamide], for which the “CDMF75 IC15” value is 3.7 µM and the pIC50 was 4.80.
Taken in the same sequence, the figures for `CC(=O)OCCc1nc(-c2ccc3c(c2)CC[C@H]3NC(=O)c2cnn(C)c2)no1` [Compound 548, 2-(3-{(1R)-1-[(1-methylpyrazol-4-yl)carbonylamino]indan-5-yl}-1,2,4-oxadiazol-5-yl)ethyl acetate] were 11.8 µM and 4.41.
Regarding `[2H]C([2H])([2H])c1nc(-c2ccc3c(c2)CC[C@H]3NC(=O)c2cnn(C)c2C)no1` [Compound 250, (R)-1,5-dimethyl-N-(5-(5-(methyl-d3)-1,2,4-oxadiazol-3-yl)-2,3-dihydro-1H-inden-1-yl)-1H-pyrazole-4-carboxamide], the “CDMF75 IC15” value came out at 1.0 µM and the pIC50 was 5.44.
On to `CC(C)(C)OC(=O)NC1CCc2cc(-c3noc(C(F)F)n3)ccc21` (stereo not shown) [Compound 16, tert-butyl (5-(5-(difluoromethyl)-1,2,4-oxadiazol-3-yl)-2,3-dihydro-1H-inden-1-yl)carbamate], for which the “CDMF75 IC15” value worked out at 8.9 µM and the pIC50 is less than 4.41.
As for `Cc1nc(-c2ccc3c(c2)OC[C@@H]3NC(=O)c2oc(C)nc2C)no1` [Compound 160, (R)-2,4-dimethyl-N-(6-(5-methyl-1,2,4-oxadiazol-3-yl)-2,3-dihydrobenzofuran-3-yl)oxazole-5-carboxamide], the “CDMF75 IC15” value came to 6.5 µM and the pIC50 is 4.50.
Regarding `COCc1nc(-c2ccc3c(c2)OC[C@H]3NC(=O)c2cccc([C@H](C)O)c2)no1` [Compound 736, 3-((S)-1-hydroxyethyl)-N-((S)-6-(5-(methoxymethyl)-1,2,4-oxadiazol-3-yl)-2,3-dihydrobenzofuran-3-yl)benzamide], the “CDMF75 IC15” value was found to be 1.2 µM and the pIC50 is 5.27.
Regarding `[2H]C([2H])([2H])c1nc(-c2ccc3c(c2)CC[C@H]3NC(=O)c2oncc2C)no1` [Compound 248, (R)-4-methyl-N-(5-(5-(methyl-d3)-1,2,4-oxadiazol-3-yl)-2,3-dihydro-1H-inden-1-yl)isoxazole-5-carboxamide], the “CDMF75 IC15” value was determined as 0.4 µM and the pIC50 was 5.82.
Turning to `O=C(NC1CC1)N[C@@H]1CCc2cc(-c3noc(C(F)F)n3)ccc21` [Compound 289, (R)-1-cyclopropyl-3-(5-(5-(difluoromethyl)-1,2,4-oxadiazol-3-yl)-2,3-dihydro-1H-inden-1-yl)urea], the “CDMF75 IC15” value is 39.2 µM and the pIC50 was less than 4.41.
`Cc1csc(C(=O)NC2CCc3cc(-c4noc(C(F)F)n4)ccc32)n1` (stereo not shown) [Compound 60, N-(5-(5-(difluoromethyl)-1,2,4-oxadiazol-3-yl)-2,3-dihydro-1H-inden-1-yl)-4-methylthiazole-2-carboxamide]: the “CDMF75 IC15” value is 2.3 µM and the pIC50 is 5.08.
`Cc1nn(C)cc1C(=O)NC1CCc2cc(-c3noc(C(F)F)n3)ccc21` (stereo not shown) [Compound 28, N-(5-(5-(difluoromethyl)-1,2,4-oxadiazol-3-yl)-2,3-dihydro-1H-inden-1-yl)-1,3-dimethyl-1H-pyrazole-4-carboxamide]: the “CDMF75 IC15” value came out at 0.8 µM and the negative-log IC50 (pIC50) was 5.47.
`Cc1noc(-c2ccc3c(c2)CC[C@H]3NC(=O)c2ccnc(C(F)F)c2)n1` [Compound 716, (R)-2-(difluoromethyl)-N-(5-(3-methyl-1,2,4-oxadiazol-5-yl)-2,3-dihydro-1H-inden-1-yl)isonicotinamide]: the “CDMF75 IC15” value is 1.4 µM and the pIC50 was 5.23.
For `Cc1cc(C(=O)NC2CCc3cc(-c4noc(C(F)F)n4)ccc32)n(C)n1` (stereo not shown) [Compound 30, N-(5-(5-(difluoromethyl)-1,2,4-oxadiazol-3-yl)-2,3-dihydro-1H-inden-1-yl)-1,3-dimethyl-1H-pyrazole-5-carboxamide] the same measures were 0.8 µM and 5.64.
In the case of `Cc1noc(-c2ccc3c(c2)CC[C@H]3NC(=O)c2cnc(C)o2)n1` [Compound 202, (R)-2-methyl-N-(5-(3-methyl-1,2,4-oxadiazol-5-yl)-2,3-dihydro-1H-inden-1-yl)oxazole-5-carboxamide], the “CDMF75 IC15” value came to 2.6 µM and the pIC50 was 4.98.
Turning to `Cc1nc(-c2ccc3c(c2)CCC3NC(=O)c2ccnn2C)no1` (stereo not shown) [Compound 65, 1-methyl-N-(5-(5-methyl-1,2,4-oxadiazol-3-yl)-2,3-dihydro-1H-inden-1-yl)-1H-pyrazole-5-carboxamide], the “CDMF75 IC15” value was found to be 0.8 µM and the pIC50 is 5.52.
Taken in the same sequence, the figures for `CCc1nc(-c2ccc3c(c2)CC[C@H]3NC(=O)c2cn(CCOC)nc2C)no1` [Compound 596, (R)-N-(5-(5-ethyl-1,2,4-oxadiazol-3-yl)-2,3-dihydro-1H-inden-1-yl)-1-(2-methoxyethyl)-3-methyl-1H-pyrazole-4-carboxamide] were 0.8 µM and 5.60.
